{"source": "patent US20250122253A1", "about": "“REGULATING MICROTUBULE DYNAMICS AS A THERAPEUTIC TARGET FOR NERVE REPAIR” (City University of Hong Kong, priority 2023, published 2025)", "key": {"[1]": {"settings": "chronic exposure, high doses in animals; cited from earlier work"}, "spinal neurons": {"system": "spinal neurons", "settings": "background statement; paclitaxel in rats; cited from earlier work"}, "tubulin": {"system": "tubulin", "settings": "epothilone B: cultured rat cortical neurons; cited from earlier work"}, "acetylated tubulin": {"system": "acetylated tubulin", "test": "Western blot of acetylated tubulin/total tubulin in sciatic nerve segments 0-6 mm distal to the crush site", "format": "in vivo, mice", "settings": "AAV2/9-Fmn2-shRNA mice; 3 days after injury", "protocol": "(§1) Ipsilateral L4/5 DRG neurons were harvested at various time points following sciatic nerve injury as indicated. Sciatic nerves were harvested 3 days after crush injury and segmented into 0-6 mm distal to the crush site. Each protein sample was pooled from 3 mice. DRG neurons and segmented sciatic nerves were mechanically dissociated with protein lysis buffer, and subjected to measurement of protein concentration using protein BCA assay (Pierce). Protein lysate (30 μg) was separated on 4-12% NuPAGE Tris-Glycine precast gel (Invitrogen). Protein was then transferred onto a PVDF membrane (Bio-Rad) and blocked with 5% non-fat milk (Bio-Rad) in TBS-T. The membrane was incubated with anti-FMN2 (1:500; ProteinTech), anti-phosphorylated HDAC5 (1:500, ThermoFisher), anti-HDAC5 (1:500, Novus Biologicals), anti-acetylated tubulin (1:10,000; Sigma-Aldrich), anti-NeuN (1:500; Millipore), anti-SOX10 (1:500; Abcam), anti-IBA-1 (1:1,000; Wako), anti-GFP (1:1,000; Cell Signaling), and anti-GAPDH antibodies (1:2,000; ProteinTech) as loading controls. The membrane was incubated with secondary antibody conjugated with horseradish peroxidase (1:2,000; Thermo-Fisher). Signals were detected using West Femto Maximum Sensitivity Substrate Kit (Thermo Scientific). […] Band intensities were measured using Image Lab software (Bio-Rad). […]"}, "pHDAC5": {"system": "pHDAC5", "test": "Western blot of pHDAC5 in sciatic nerve segments 0-6 mm distal to the crush site", "format": "in vivo, mice", "settings": "AAV2/9-Fmn2-shRNA mice; 3 days after injury", "protocol": "as §1"}, "[2]": {"system": "regenerating sensory axons of the injured sciatic nerve", "test": "Sciatic nerve pinch test after sciatic nerve crush injury", "format": "in vivo, mice", "settings": "AAV2/9-Fmn2-shRNA mice; 3 days after sciatic nerve injury; LMK-235 20 mg/kg intraperitoneally 3 consecutive days", "protocol": "Sciatic nerve crush or transection injury was performed in anesthetized adult male C57BL/6 or Fmn2^−/− mice (8-12 weeks old) as previously described. Briefly, the left sciatic nerve was exposed at mid-thigh level. For crush injury, the exposed nerve was crushed with smooth forceps (Dumont #5/45 Forceps, Fine Science Tools) at the sciatic notch for 15 seconds. For sciatic nerve transection, an epineural suture was first made at the level of external rotator muscle, just distal to the sciatic notch. The exposed nerve was then transected using a pair of ophthalmic microscissors just distal to the suture. After injury, the overlying muscle and skin were sutured using a 5-0 suture (Ethilon), and the mice were allowed to recover on a heated pad, and returned to their home cages after recovery. The surgeon was blinded to the genotypes and treatments.\nFor in vivo gene silencing of Fmn2 and/or Hdac5 in DRGs, AAV2/9-Fmn2-shRNA and AAV2/9-Hdac5-shRNA at a titer of 5×10^12 vg/mL (OBIO Technology) were injected into the sciatic nerve directly through a glass micropipette using a microinjector (Harvard Apparatus) two weeks before sciatic nerve crush injury. The mice were then subjected to sciatic nerve crush injury and sciatic nerve pinch test (FIG. 4) and animal behavioural assessment (FIG. 15). The expression of shRNAs was under the control of the U6 promoter, and the expression of the reporter gene eGFP was under the control of the CAG promoter. AAV2/9-scr-shRNA (Packgene) was used as a negative control (see FIG. 22 for the shRNA sequences). On a separate batch of animals, the knockdown efficiency in DRGs was assessed by Western blot analysis in AAV2-Fmn2-shRNA and AAV2-Hdac5-shRNA mice two weeks after the AAV injection (FIGS. S8B and S9). […]\nSciatic nerve pinch test was performed in the ipsilateral side 3 days after sciatic nerve crush injury. […] The distance (in mm) representing the length of axonal regrowth was recorded from the crushed site to the most distal point of sciatic nerve whereas initial withdrawal reflex was observed after pinching. […]"}, "damaged axons": {"system": "damaged axons", "settings": "background statement; cited from earlier work"}}, "data": [{"molecule": "C/C(=C\\c1csc(C)n1)[C@@H]1C[C@@H]2O[C@]2(C)CCC[C@H](C)[C@H](O)[C@@H](C)C(=O)C(C)(C)[C@@H](O)CC(=O)O1", "note": "[Epothilone B]", "values": [{"measurement": "peripheral neuropathy", "setting": "[1]", "value": "cause chemotherapy-induced peripheral neuropathy"}, {"measurement": "axon regeneration after spinal cord injury", "setting": "spinal neurons", "value": "promoted in vivo axon regeneration"}, {"measurement": "tubulin polymerization at growing tips / growth cones", "setting": "tubulin", "value": "induced rapid tubulin polymerization"}]}, {"molecule": "Cc1cc(C)cc(C(=O)NOCCCCCC(=O)NO)c1", "note": "[LMK-235]", "values": [{"measurement": "acetylated tubulin expression in sciatic nerves of AAV2/9-Fmn2-shRNA mice", "setting": "acetylated tubulin", "value": "increased acetylated tubulin expression"}, {"measurement": "reduction of pHDAC5 protein expression in AAV2/9-Fmn2-shRNA mice", "setting": "pHDAC5", "value": 70, "unit": "%"}, {"measurement": "effect on the axon regrowth-promoting effect in AAV2/9-Fmn2-shRNA mice", "setting": "[2]", "value": "completely eliminated the axon regrowth-promoting effect"}]}, {"molecule": "CC(=O)O[C@H]1C(=O)[C@@]2(C)[C@H]([C@H](OC(=O)c3ccccc3)[C@]3(O)C[C@H](OC(=O)[C@H](O)[C@@H](NC(=O)c4ccccc4)c4ccccc4)C(C)=C1C3(C)C)[C@]1(OC(C)=O)CO[C@@H]1C[C@@H]2O", "note": "[paclitaxel]", "values": [{"measurement": "axon regeneration after spinal cord injury", "setting": "spinal neurons", "value": "facilitated in vivo axon regeneration"}, {"measurement": "tubulin polymerization at growing tips / growth cones", "setting": "tubulin", "value": "induced active tubulin polymerization"}]}, {"molecule": "O=C(CCCCCN1C(=O)c2cccc3cccc(c23)C1=O)NO", "note": "[scriptaid]", "values": [{"measurement": "axonal regrowth after PNI", "setting": "damaged axons", "value": "markedly stalled axonal regrowth"}]}]}
